Values joined by “and” are separate entries in the source; they are usually repeats but may differ in a detail not shown here. Equal entries are not always repeated.
What was measured:
[1] = instrument: DT, single field, calibrated with ESI Low Concentration Tuning Mix (Agilent)
[2] = [M+H]+; instrument: TW; calibrated with polyalanine and drug standards

Row | collision cross section (N2) ([1]; [M+H]+) | collision cross section (N2) ([1]; [M+Na]+) | collision cross section (N2) ([1]; [M-H]-) | collision cross section (N2) [2] [Å²] | collision cross section (N2) ([1]; [M+Na-2H]-) [Å²] | collision cross section (N2) ([1]; [M+K]+) [Å²] | SMILES
1 | 149.3 Å² and 149.6 Å² | 152.8 Å² and 153.1 Å² | – | 146 | – | – | Nc1ccccc1C(=O)CC(N)C(=O)O (centres undefined) [KYNURENINE]
2 | 179.2 Å² | 182.4 Å² | 184.5 Å² | – | 183.2 | – | NC(=O)[C@@H]1CCCN1C(=O)[C@H](Cc1cnc[nH]1)NC(=O)[C@@H]1CCC(=O)N1 [THYROTROPIN RELEASING HORMONE]
3 | 150.1 Å² and 150.3 Å² | 147.6 Å² and 147.7 Å² | 142.3 Å² and 142.5 Å² and 151.5 Å² | – | – | – | N[C@@H](Cc1c[nH]c2ccccc12)C(=O)O [TRYPTOPHAN]
4 | – | 132.4 Å² | – | – | – | – | NC(=O)NCCC(=O)O [UREIDOPROPIONATE]
5 | 165.7 Å² | 172.3 Å² | 161.2 Å² | – | 163.6 | – | O=c1ccn([C@@H]2O[C@H](COP(=O)(O)O)[C@@H](O)[C@H]2O)c(=O)[nH]1 [URIDINE MONOPHOSPHATE]
6 | 134.6 Å² | – | 120.9 Å² | – | – | – | O=C(O)/C=C/c1cnc[nH]1 [UROCANATE]
7 | 162 Å² | 173.3 Å² | 158.3 Å² | – | 161.9 | 173 | O=c1[nH]c(=O)c2ncn([C@@H]3O[C@H](CO)[C@@H](O)[C@H]3O)c2[nH]1 [XANTHOSINE]

Continued, molecule first:

Row | SMILES | collision cross section (N2) ([1]; [M+H]+) | collision cross section (N2) ([1]; [M+Na]+) | collision cross section (N2) ([1]; [M-H]-) | collision cross section (N2) [2] [Å²] | collision cross section (N2) ([1]; [M+Na-2H]-) [Å²] | collision cross section (N2) ([1]; [M+K]+) [Å²]
8 | CN1CC(=O)N=C1N [CREATININE] | 123.2 Å² | 132.8 Å² | 118.5 Å² | 120.2 | – | –
9 | N[C@H]1C(O)O[C@H](CO)[C@@H](O)[C@@H]1O (some centres undefined) [GLUCOSAMINE] | 138.1 Å² and 141.4 Å² | 143.5 Å² and 146.5 Å² | – | 145.2 | – | –
10 | Cc1ncc(CO)c(CO)c1O [PYRIDOXINE] | 134.4 Å² | – | 132.4 Å² | 132.3 | – | –
11 | Cc1cc2nc3c(=O)[nH]c(=O)nc-3n(C[C@H](O)[C@H](O)[C@H](O)CO)c2cc1C [RIBOFLAVIN] | 188.5 Å² | – | 186.1 Å² | 184.9 | – | –
12 | NC(=O)c1ccccc1O [SALICYLAMIDE] | 124.4 Å² | – | 121.1 Å² | 122.2 | – | –
13 | OC[C@H]1O[C@H](O[C@H]2O[C@H](CO)[C@@H](O)[C@H](O)[C@H]2O)[C@H](O)[C@@H](O)[C@@H]1O [TREHALOSE] | – | 175.7 Å² | 169.9 Å² | – | – | 179.7
14 | CCCCCCCCCCCCCCCCCCCCCCC(=O)[O-] [TRICOSANOATE] | – | 204.8 Å² | 196.9 Å² | – | – | –
15 | CC(=O)NC1C(OP(=O)(O)OP(=O)(O)OCC2OC(n3ccc(=O)[nH]c3=O)C(O)C2O)OC(CO)C(O)C1O (centres undefined) [URIDINE DIPHOSPHATE-N-ACETYLGALACTOSAMINE] | 216.2 Å² | 218.1 Å² | 223.9 Å² | – | 228.2 | –
16 | CC(=O)N[C@H]1[C@H](OP(=O)(O)OP(=O)(O)OC[C@H]2O[C@@H](n3ccc(=O)[nH]c3=O)[C@H](O)[C@@H]2O)O[C@H](CO)[C@@H](O)[C@@H]1O [URIDINE DIPHOSPHATE-N-ACETYLGLUCOSAMINE] | 210.5 Å² | 218.1 Å² | 224 Å² | – | 227.9 | –
17 | CC(C)[C@H](N)C(=O)O [VALINE] | 120.9 Å² | 133.4 Å² | 124.3 Å² | – | – | –
